From US20230111853A1, “COMPOUNDS MODULATING PROTEIN RECRUITMENT AND/OR DEGRADATION” (Orionis Biosciences, Inc., priority 2019, published 2023) come the findings set out here.

Each structure is given as a SMILES string.

For this test, the system named is IKZF1, ASS1 and SALL4 recruitment to CRBN. The experiment in a line: Recruitment assessment: recruitment of any tested substrate from among IKZF1, ASS1 and SALL4. The class given is cell-based. The conditions noted are these: any tested substrate at any tested compound concentration. As to the method: In this experimental set-up, cells were transfected with a construct encoding a CRBN-fusion protein and another one encoding a substrate-fusion protein. Test compound activity was assessed with increasing concentrations of test compounds (dose-response studies) to monitor the ability to promote CRBN-ligand-induced protein interaction.
Full size proteins were fused for each of the target proteins tested, except in the case of IKZF1 where isoform 7 was used. For the study, the following were used: IKZF1 recruitment: pSEL-CRBN+pMG1-IKZF1(isoform 7); ASS1 recruitment: pSEL-CRBN+pMG1-ASS1. SALL4 recruitment: pSEL-SALL4+pMG1-CRBN. […] Luciferase activity was measured 24 hours after test compound treatment using the Luciferase Assay System kit (PROMEGA, Madison, Wis.) with an Ensight plate reader (PERKIN ELMER LIFE SCIENCES, Waltham, Mass.). Data points depicted fold induction of the average luciferase activity of triplicate samples from EPO+test compound treated cells versus EPO only treated cells. Error bars represent standard deviations. Curves were fit using 4-parameter nonlinear regression in […] PRISM software.
Consider `Nc1cccc2c1C(=O)N(C1CCC(=O)NC1=O)C2` (stereo not shown) [3-(7-amino-1-oxo-isoindolin-2-yl)piperidine-2,6-dione], for which the “Recruitment Assessment” value was “TRUE”.

Turning to `Cc1nc(N(C)C)cc2c1C(=O)N(C1CCC(=O)NC1=O)C2=O` (stereo not shown) [C64376, 6-(dimethylamino)-2-(2,6-dioxo-3-piperidyl)-4-methyl-pyrrolo[3,4-c] pyridine-1,3-dione], the “Recruitment Assessment” value was “FALSE”.

In the case of `CC1CCCN(C(=O)CNc2ccc3c(c2)C(=O)N(C2CCC(=O)NC2=O)C3)C1` (stereo not shown) [C12583, 3-[6-[[2-(3-methyl-1-piperidyl)-2-oxo-ethyl]amino]-1-oxo-isoindolin-2-yl]piperidine-2,6-dione], the “Recruitment Assessment” value is “FALSE”.

Take `CC(C)(C)OC(=O)CC1c2ccccc2C(=O)N1C1CCC(=O)NC1=O` (stereo not shown) [C98053, t-butyl 2-[2-(2,6-dioxo-3-piperidyl)-3-oxo-isoindolin-1-yl]acetate]: the “Recruitment Assessment” value is “FALSE”.

For `Nc1cccc2c1CN(C1CC(=O)NC(=O)C1)C2=O` [C47927, 4-(4-amino-1-oxo-isoindolin-2-yl)piperidine-2,6-dione], the “Recruitment Assessment” value was “TRUE”.

On to `O=C1CCC(N2Cc3ccc(NCC(=O)NC4CC4)cc3C2=O)C(=O)N1` (stereo not shown) [C84963, N-cyclopropyl-2-[[2-(2,6-dioxo-3-piperidyl)-3-oxo-isoindolin-5-yl]amino]acetamide], for which the “Recruitment Assessment” value is on record as “FALSE”.

Consider `O=C1CCC(N2C(=O)C3CC=CCC3C2=O)C(=O)N1` (stereo not shown) [C51647, 2-(2,6-dioxo-3-piperidyl)-3a,4,7,7a-tetrahydroisoindole-1,3-dione], for which the “Recruitment Assessment” value is recorded as “FALSE”.

With `COc1ccc(C2c3ccccc3C(=O)N2C2CCC(=O)NC2=O)cc1` (stereo not shown) [C11892], the “Recruitment Assessment” value is given as “FALSE”.

On to `O=C1CC=CC(C(=O)NC2CCC(=O)NC2=O)=N1` (stereo not shown) [C98696, N-(2,6-dioxo-3-piperidyl)-2-oxo-3H-pyridine-6-carboxamide], for which the “Recruitment Assessment” value is recorded as “FALSE”.

For `N#Cc1ccc(Nc2ccc3c(c2)C(=O)N(C2CCC(=O)NC2=O)C3)nn1` (stereo not shown) [C80389, 6-[[2-(2,6-dioxo-3-piperidyl)-3-oxo-isoindolin-5-yl]amino]pyridazine-3-carbonitrile], the “Recruitment Assessment” value is given as “FALSE”.

With `COc1ccc(Br)c2c1C(=O)N(C1CCC(=O)NC1=O)C2` (stereo not shown) [C74668, 3-(4-bromo-7-methoxy-1-oxo-isoindolin-2-yl)piperidine-2,6-dione], the “Recruitment Assessment” value is recorded as “FALSE”.

Take `Cl.NC1Cc2ccccc2C1=O` (stereo not shown) [C75987, 2-aminoindan-1-one; hydrochloride]: the “Recruitment Assessment” value is listed as “FALSE”.

Regarding `NC(=O)Nc1cccc2c1CN(C1CCC(=O)NC1=O)C2=O` (stereo not shown) [C29490, [2-(2,6-dioxo-3-piperidyl)-1-oxo-isoindolin-4-yl]urea], the “Recruitment Assessment” value was “TRUE”.

`Nc1cccc2c1CN(C1CCS(=O)(=O)NC1=O)C2=O` (stereo not shown) [C55859, 4-(4-Amino-1-oxoisoindolin-2yl)-1,2-thiazinan-3-one 1,1-dioxide]: the “Recruitment Assessment” value is “FALSE”.

Turning to `Nc1cccc2c1CN(C1CNC(=O)NC1=O)C2=O` (stereo not shown) [C47928, 5-(4-amino-1-oxo-isoindolin-2-yl)hexahydropyrimidine-2,4-dione], the “Recruitment Assessment” value is given as “FALSE”.

Consider `O=C1N=CC(N2C(=O)c3ccccc3C2=O)C(=O)N1` (stereo not shown) [C49278, 2-(2,6-dioxo-5H-pyrimidin-5-yl)isoindoline-1,3-dione], for which the “Recruitment Assessment” value was “FALSE”.

Regarding `CN(C)C(=O)CNc1ccc2c(c1)C(=O)N(C1CCC(=O)NC1=O)C2` (stereo not shown) [C84964, 2-[[2-(2,6-dioxo-3-piperidyl)-3-oxo-isoindolin-5-yl]amino]-N,N-dimethyl-acetamide], the “Recruitment Assessment” value is given as “FALSE”.

Turning to `O=C(O)CNc1ccc2c(c1)C(=O)N(C1CCC(=O)NC1=O)C2` (stereo not shown) [C47997, 2-[[2-(2,6-dioxo-3-piperidyl)-3-oxo-isoindolin-5-yl]amino]acetic acid], the “Recruitment Assessment” value is reported as “FALSE”.

On to `CC(=O)Nc1cccc2c1CN(C1CCC(=O)NC1=O)C2=O` (stereo not shown) [C29330, N-[2-(2,6-dioxo-3-piperidyl)-1-oxo-isoindolin-4-yl]acetamide], for which the “Recruitment Assessment” value was “TRUE”.

Regarding `O=C1CCC(N2Cc3ccc(NCC(=O)N4CC5COCC5C4)cc3C2=O)C(=O)N1` (stereo not shown) [C95334, 3-[6-[[2-(1,3,3a,4,6,6a-hexahydrofuro[3,4-c]pyrrol-5-yl)-2-oxo-ethyl]amino]-1-oxo-isoindolin-2-yl]piperidine-2.6-dione], the “Recruitment Assessment” value is on record as “FALSE”.

In the case of `O=C1CCC(N2Cc3ccc(O)cc3C2=O)C(=O)N1` (stereo not shown) [C28928, 3-(6-hydroxy-1-oxo-isoindolin-2-yl)piperidine-2,6-dione], the “Recruitment Assessment” value is “TRUE”.

`O=C1CCC(N2Cc3ccccc3C2=O)C(=O)N1` (stereo not shown) [3-(1-oxoisoindolin-2-yl)piperidine-2,6-dione]: the “Recruitment Assessment” value was “TRUE”.

On to `O=C1CCC(N2C(=O)CC3(CCOCC3)C2=O)C(=O)N1` (stereo not shown) [C64348, 2-(2,6-dioxo-3-piperidyl)-8-oxa-2-azaspiro[4.5]decane-1,3-dione], for which the “Recruitment Assessment” value is “FALSE”.

Regarding `O=C1CCC(Nc2ncccn2)C(=O)N1` (stereo not shown) [C55468, 3-(pyrimidin-2-ylamino)piperidine-2,6-dione], the “Recruitment Assessment” value is given as “FALSE”.

Take `O=C1CCC(N2Cc3ccc(C(F)(F)F)cc3C2=O)C(=O)N1` (stereo not shown) [C45748, 3-[1-oxo-6-(trifluoromethyl)isoindolin-2-yl]piperidine-2,6-dione]: the “Recruitment Assessment” value is “FALSE”.

In the case of `O=C1CCC(CN2C(=O)c3ccccc3C2=O)C(=O)N1` (stereo not shown) [C23258, 2-[(2,6-dioxo-3-piperidyl)methyl]isoindoline-1,3-dione], the “Recruitment Assessment” value was “FALSE”.

In the case of `Nc1cccc2c1CN(C1CCCC(=O)NC1=O)C2=O` (stereo not shown) [C47932, 3-(4-amino-1-oxo-isoindolin-2-yl)azepane-2,7-dione], the “Recruitment Assessment” value is listed as “TRUE”.

As to `O=C1CCC(N2C(=O)C=C(c3ccccc3)C2=O)C(=O)N1` (stereo not shown) [C64319, 3-(2,5-dioxo-3-phenyl-pyrrol-1-yl)piperidine-2,6-dione], the “Recruitment Assessment” value was “FALSE”.

With `O=C1CCC(N2Cn3c(cccc3=O)C2=O)C(=O)N1` (stereo not shown) [C60651, 2-(2,6-dioxo-3-piperidyl)-3H-imidazo[1,5-a]pyridine-1,5-dione], the “Recruitment Assessment” value is on record as “FALSE”.

Consider `O=C1c2ccccc2CC1n1ccc(=O)[nH]c1=O` (stereo not shown) [C16899, 1-(1-oxoindan-2-yl)pyrimidine-2,4-dione], for which the “Recruitment Assessment” value was “FALSE”.

In the case of `CC1CN(C(=O)CNc2ccc3c(c2)C(=O)N(C2CCC(=O)NC2=O)C3)CCO1` (stereo not shown) [C12586, 3-[6-[[2-(2-methylmorpholin-4-yl)-2-oxo-ethyl]amino]-1-oxo-isoindolin-2-yl]piperidine-2,6-dione], the “Recruitment Assessment” value is “FALSE”.

`O=C1CCC(N2C(=O)c3ccccc3C2Nc2ccccc2)C(=O)N1` (stereo not shown) [C10537, 3-(1-anilino-3-oxo-isoindolin-2-yl)piperidine-2,6-dione]: the “Recruitment Assessment” value is “FALSE”.

As for `O=C1CCC(N2C(=O)c3ccccc3C2NC(=O)c2ccccc2)C(=O)N1` (stereo not shown) [C46003, N-[2-(2,6-dioxo-3-piperidyl)-3-oxo-isoindolin-1-yl]benzamide], the “Recruitment Assessment” value was “FALSE”.

On to `O=C1CCC(N2Cc3ccc(NC(=O)c4ccc5ccccc5n4)cc3C2=O)C(=O)N1` (stereo not shown) [C80392, N-[2-(2,6-dioxo-3-piperidyl)-3-oxo-isoindolin-5-yl]quinoline-2-carboxamide], for which the “Recruitment Assessment” value was “FALSE”.
